We go through two molecules from patent publication EP4167978B1, “USE OF JUNIPER (JUNIPERUS COMMUNIS) BERRIES EXTRACT, DEOXYPODOP[…] […], AS POSITIVE ALLOSTERIC MODULATORS OF CANNABINOID TYPE 1 RECEPTOR FOR TREATING NEUROPATHIC PAIN AND IN[…]” (Vivacell Biotechnology Espana S.L., priority 2020, dated 2022).

Test [1] has as its target T1, human CB1R (Homo sapiens, UniProt P21554).
T1 construct: expressed in transfected cells; host or cells: HEK293T (HEK293T-CB1-CRE-Luc)
In words: CB1R positive allosteric modulation (PAM) activity, CRE-luciferase reporter in the presence of the orthosteric agonist CP-55,940. The format is cell-based. To be noted: for percentage of CB1R activity normalized to 100% stimulation induced by 2.5 µM CP-55,940 alone: HEK293T-CB1-CRE-luc cells, tested at 1, 5, 10 and 25 µg/mL in the presence of 2.5 µM CP-55,940, CB1R activity ≥ 150% is considered CB1R PAM activity; for CB1R PAM activity: result in words, HEK293T-CB1-CRE-luc cells with 2.5 µM CP-55,940. Here is the method: The determination of CB1R activity was carried out using the HEK293T-CB1-CRE-Luc cells stably transfected with the human CB1R cDNA, and a construction of CRE-Luc that contains as promoter six consensus cAMP responsive elements (CRE) linked to firefly luciferase reporter gene. The increase in cAMP levels activates the CRE-Luc system, inducing the expression of the luciferase reporter gene. Briefly, HEK293T-CB1-CRE-Luc cells were cultured in supplemented DMEM (Sigma) medium containing 10% FBS (Gibco) and 1% antibiotics penicillin/streptomycin (Sigma) (DMEM complete medium) and maintained at 37° C in a humidified atmosphere of 5% CO2. The day before the assay 10^4 cells per well were seeded in 96 well-plates and incubated overnight. For determining CB1R positive allosteric modulation (PAM) activity, HEK293T-CB1-CRE-Luc cells were treated with increasing concentrations of the fractions for 30 min and then treated with the CB1R orthosteric agonist CP-55,940 at 2.5 µM. For CB1R agonistic activity, HEK293T-CB1-CRE-Luc cells were treated with increasing concentrations of the fractions. CP-55,940 alone, a CB1R orthosteric agonist, was used at 2.5 µM as positive control of cAMP signaling pathway activated by a CB1R-dependent orthosteric mechanism; and cells without stimulus were used as negative control. In both assays, after 6 h of stimulation, cells were washed twice with PBS 1X and lysed in 100 µL lysis buffer containing 25 mM Tris-phosphate (pH 7.8), 8 mM MgCl2, 1 mM DTT, 1% Triton X-100, and 7% glycerol during 15 min at room temperature in a horizontal shaker. Luciferase activity was measured using a TriStar2 Berthold/LB942 multimode reader (Berthold Technologies) following the instructions of the luciferase assay kit (Promega, Madison, Wl, USA). The RLUs (relative light units) were calculated and: (i) For allosteric activity, results were expressed as percentage of CB1R activity normalized to 100% stimulation induced by 2.5 µM CP-55,940, according to the following formula: Percentage of CB1R activity = 100 * (T - B) / (C - B); where T are the RLUs of the cells treated with the fractions and 2.5 µM CP-55,940; C are the RLUs of the cells treated with CP-55,940 alone, and B are the RLUs of the cells without stimulus. CB1R activity ≥ 150% was considered CB1R PAM activity (ii) For the CB1R agonistic activity, results were expressed as a fold change over non-stimulated cells according to the following formula: Fold change of CB1R activity = T / B; where T are RLUs of the cells treated with the fractions and B are the RLUs of the cells without stimulus. CB1R activity ≥ 2.5-fold increase is considered CB1R agonistic activity.
Background: A reporter such as luciferase makes a cellular process visible.

For test [2], the target named is T1, human CB1R. As to the kind of experiment: CB1R agonistic activity, CRE-luciferase reporter without CP-55,940. The format is cell-based. To be noted: HEK293T-CB1-CRE-luc cells, compound alone. The procedure: The determination of CB1R activity was carried out using the HEK293T-CB1-CRE-Luc cells stably transfected with the human CB1R cDNA, and a construction of CRE-Luc that contains as promoter six consensus cAMP responsive elements (CRE) linked to firefly luciferase reporter gene. The increase in cAMP levels activates the CRE-Luc system, inducing the expression of the luciferase reporter gene. Briefly, HEK293T-CB1-CRE-Luc cells were cultured in supplemented DMEM (Sigma) medium containing 10% FBS (Gibco) and 1% antibiotics penicillin/streptomycin (Sigma) (DMEM complete medium) and maintained at 37° C in a humidified atmosphere of 5% CO2. […] Luciferase activity was measured using a TriStar2 Berthold/LB942 multimode reader (Berthold Technologies) following the instructions of the luciferase assay kit (Promega, Madison, Wl, USA). The RLUs (relative light units) were calculated and: (i) For allosteric activity, results were expressed as percentage of CB1R activity normalized to 100% stimulation induced by 2.5 µM CP-55,940, according to the following formula: Percentage of CB1R activity = 100 * (T - B) / (C - B); where T are the RLUs of the cells treated with the fractions and 2.5 µM CP-55,940; C are the RLUs of the cells treated with CP-55,940 alone, and B are the RLUs of the cells without stimulus. […]

T1 sequence (P21554 whole entry): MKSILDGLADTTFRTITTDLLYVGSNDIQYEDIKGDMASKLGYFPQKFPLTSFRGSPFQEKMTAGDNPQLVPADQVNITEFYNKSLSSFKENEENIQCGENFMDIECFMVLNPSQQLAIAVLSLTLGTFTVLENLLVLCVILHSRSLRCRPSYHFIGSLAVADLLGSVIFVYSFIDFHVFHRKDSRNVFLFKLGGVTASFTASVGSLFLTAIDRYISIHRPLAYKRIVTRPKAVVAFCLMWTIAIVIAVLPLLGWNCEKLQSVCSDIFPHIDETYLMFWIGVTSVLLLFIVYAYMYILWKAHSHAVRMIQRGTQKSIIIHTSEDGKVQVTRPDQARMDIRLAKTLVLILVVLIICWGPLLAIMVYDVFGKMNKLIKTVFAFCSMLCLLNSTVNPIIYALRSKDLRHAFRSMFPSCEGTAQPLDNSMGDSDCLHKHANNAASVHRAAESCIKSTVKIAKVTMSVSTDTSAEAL

Consider `C=C1CC[C@H]2[C@@](C)(CO)CCC[C@]2(C)[C@H]1CC/C(C)=C/CO` [agathadiol, (E)-5-[(1S,4aR,5S,8aR)-5-(hydroxymethyl)-5,8a-dimethyl-2-methylidene-3,4,4a,6,7,8-hexahydro-1H-naphthalen-1-yl]-3-methylpent-2-en-1-ol], for which the “percentage of CB1R activity normalized to 100% stimulation induced by 2.5 µM CP-55,940 alone” value in test [1] is given as “over 1000%”. The “CB1R PAM activity” value was “clear CB1R PAM activities at a range of concentrations” in test [1] and “increasingly stronger bioactive effect as PAM of CB1R with increasing concentrations” in test [1] (listed as Agathadiol). For the same molecule, the “CB1R agonistic activity on cAMP signaling pathway” value in test [2] (at high concentrations, ≥ 2.5-fold increase over non-stimulated cells is considered agonistic) is recorded as “medium CB1R agonistic activity”; in test [2] (at the lower tested concentration) it was “residual”.

`COc1cc([C@H]2c3cc4c(cc3C[C@@H]3COC(=O)[C@H]32)OCO4)cc(OC)c1OC` [deoxypodophyllotoxin, (5S,5aS,8aS)-5-(3,4,5-trimethoxyphenyl)-5a,8,8a,9-tetrahydro-5H-[2]benzofuro[5,6-f][1,3]benzodioxol-6-one]: in test [1], the “percentage of CB1R activity normalized to 100% stimulation induced by 2.5 µM CP-55,940 alone” value was “over 1000%” and the “CB1R PAM activity” value was “clear CB1R PAM activities at a range of concentrations”.
